Reference: patent US20240199635A1, “TETRAHYDROTHIENO PYRIDINE DERIVATIVES AS DDRS INHIBITORS” (CHIESI FARMACEUTICI S.P.A., priority 2021, published 2024)

Tests used:
[1] = molecular target: T1, DDR1 (Homo sapiens (Human), UniProt Q08345); assay: DDR1 binding assay (LanthaScreen Europium Kinase Binding assay); conditions: potency class, read-out: Ki DDR1
Summary of the method: (§1)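 TR-FRET tracer displacement: compounds incubated 1 h at room temperature with 5 nM DDR1 (20 nM Tracer 178) or 5 nM DDR2 (10 nM Tracer 178), 2 nM Eu-anti-GST antibody, HEPES pH 7.5 buffer. 665/615 nm ratio read; IC50 from 4-parameter fit, converted to Ki by Cheng-Prusoff.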

[2] = molecular target: T1, DDR1; assay: DDR1 cell based assay (PathHunter U2OS DDR1 assay); conditions: U2OS-DDR1 cells, Type II Collagen stimulation, potency class
Summary of the method: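 Receptor activation measured by enzyme-fragment complementation luminescence in engineered U2OS cells. Compound added 30 min before overnight challenge with 20 μg/ml bovine collagen II; data scaled between vehicle and collagen-stimulated controls, IC50 derived by four-parameter variable-slope fitting.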

[3] = molecular target: T2, DDR2 (Homo sapiens (Human), UniProt Q16832); assay: DDR2 binding assay (LanthaScreen Europium Kinase Binding assay); conditions: potency class, read-out: Ki DDR2
Summary of the method: as §1

[4] = molecular target: T2, DDR2; assay: DDR2 cell based assay (phospho-ELISA in HEK293T-DDR2 recombinant cells); conditions: DDR2 phosphorylation, Type II Collagen stimulation, potency class, read-out: IC50DDR2
Protocol: The inhibition of DDR2 phosphorylation by compounds was evaluated in HEK293T-DDR2 recombinant cells by phospho-ELISA assay. Briefly, HEK293T-DDR2 cells were seeded in poly-D-lysine-coated 24-well plates at a density of 250,000 cells/well and incubated for 1.5 hours at 37° C. and 5% CO2 in DMEM+10% FBS. After that, the medium was changed to serum-free DMEM and cells were incubated for 3 hours. Then. test compounds were added at different concentrations 30 minutes before stimulation with bovine Type II Collagen at […] for further 3 hours. For DDR2 phospho-ELISA assay (DuoSet IC Human Phospho-DDR2; R&D Systems), protein extracts were obtained by adding 60 μl/well of lysis buffer prepared according to the manufacturer's instructions. Protein concentration in the samples was determined by BCA assay and the levels of phospho-DDR2 were determined following R&D Systems indications. Raw data were normalized to maximal inhibition control (0% for normalization) and positive control (100% for normalization; cells treated with 20 μg/ml collagen II) and IC50 parameters were calculated in GraphPad Prism 8.0 software, using sigmoidal dose-response curve fitting with variable slope.

T2 sequence (Q16832 22-855): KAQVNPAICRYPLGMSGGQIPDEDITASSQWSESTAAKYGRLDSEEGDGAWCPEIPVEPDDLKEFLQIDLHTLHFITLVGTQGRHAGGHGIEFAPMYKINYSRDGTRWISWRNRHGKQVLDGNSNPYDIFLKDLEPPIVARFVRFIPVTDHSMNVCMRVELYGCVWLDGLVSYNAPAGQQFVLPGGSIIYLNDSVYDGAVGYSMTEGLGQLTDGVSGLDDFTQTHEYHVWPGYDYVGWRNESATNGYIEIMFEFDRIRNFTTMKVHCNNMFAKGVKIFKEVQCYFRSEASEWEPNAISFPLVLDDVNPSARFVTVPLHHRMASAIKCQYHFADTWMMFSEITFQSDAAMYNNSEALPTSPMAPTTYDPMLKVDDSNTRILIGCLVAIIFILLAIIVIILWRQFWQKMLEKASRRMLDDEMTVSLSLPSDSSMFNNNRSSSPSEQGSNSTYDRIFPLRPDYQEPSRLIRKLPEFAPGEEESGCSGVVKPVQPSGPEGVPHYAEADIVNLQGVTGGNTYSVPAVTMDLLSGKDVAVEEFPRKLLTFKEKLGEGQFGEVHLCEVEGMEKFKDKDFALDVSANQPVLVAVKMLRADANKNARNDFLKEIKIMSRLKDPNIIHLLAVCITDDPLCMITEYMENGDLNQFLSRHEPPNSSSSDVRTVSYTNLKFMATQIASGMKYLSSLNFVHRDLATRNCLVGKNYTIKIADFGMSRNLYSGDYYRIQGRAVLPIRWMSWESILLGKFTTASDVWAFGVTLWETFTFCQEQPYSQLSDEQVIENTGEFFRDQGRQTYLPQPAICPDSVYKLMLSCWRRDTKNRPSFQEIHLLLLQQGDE
T1 sequence (Q08345 19-913): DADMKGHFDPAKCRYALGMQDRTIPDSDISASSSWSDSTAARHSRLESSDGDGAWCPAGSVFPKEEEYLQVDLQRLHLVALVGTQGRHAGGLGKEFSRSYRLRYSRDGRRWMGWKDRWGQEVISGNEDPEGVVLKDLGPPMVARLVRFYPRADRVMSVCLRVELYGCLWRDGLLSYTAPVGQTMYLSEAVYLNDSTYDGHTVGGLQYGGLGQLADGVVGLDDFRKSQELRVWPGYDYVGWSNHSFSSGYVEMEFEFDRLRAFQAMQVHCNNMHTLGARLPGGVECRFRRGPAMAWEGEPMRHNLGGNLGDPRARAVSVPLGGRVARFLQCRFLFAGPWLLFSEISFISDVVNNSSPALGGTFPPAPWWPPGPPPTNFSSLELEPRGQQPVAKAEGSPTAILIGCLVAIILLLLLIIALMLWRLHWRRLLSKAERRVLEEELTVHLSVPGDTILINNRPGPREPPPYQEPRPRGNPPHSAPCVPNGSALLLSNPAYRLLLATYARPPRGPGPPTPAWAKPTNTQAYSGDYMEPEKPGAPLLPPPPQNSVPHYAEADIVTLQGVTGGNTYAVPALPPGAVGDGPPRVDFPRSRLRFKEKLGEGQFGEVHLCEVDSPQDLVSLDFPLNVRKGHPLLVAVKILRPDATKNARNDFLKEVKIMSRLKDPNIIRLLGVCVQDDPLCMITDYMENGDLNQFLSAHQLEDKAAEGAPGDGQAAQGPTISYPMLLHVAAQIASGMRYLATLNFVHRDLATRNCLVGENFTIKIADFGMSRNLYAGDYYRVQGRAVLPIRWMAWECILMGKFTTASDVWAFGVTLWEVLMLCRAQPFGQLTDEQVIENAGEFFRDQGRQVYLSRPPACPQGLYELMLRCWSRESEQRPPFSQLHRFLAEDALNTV

Structure (SMILES)	Ki [1]	IC50 [2]	Ki [3]	IC50 [4]
O=C(Nc1cccc(C(F)(F)F)c1)c1csc2c1CCN(Cc1cncnc1)C2 [Example 5, 6-(pyrimidin-5-ylmethyl)-N-(3-(trifluoromethyl)phenyl)-4,5,6,7-tetrahydrothieno[2,3-c]pyridine-3-carboxamide]	< 25 nM	25 to 50 nM	< 25 nM	< 25 nM
CC(F)(F)c1cccc(NC(=O)c2csc3c2CCN(Cc2cnc(N)nc2)C3)c1 [Example 58, 6-((2-aminopyrimidin-5-yl)methyl)-N-(3-(1,1-difluoroethyl)phenyl)-4,5,6,7-tetrahydrothieno[2,3-c]pyridine-3-carboxamide]	< 25 nM	25 to 50 nM	< 25 nM	25 to 50 nM
Cn1cc(Nc2ncc(CN3CCc4c(C(=O)Nc5cccc(C(F)(F)F)c5)csc4C3)cn2)cn1 [Example 18, 6-((2-((1-methyl-1H-pyrazol-4-yl)amino)pyrimidin-5-yl)methyl)-N-(3-(trifluoromethyl)phenyl)-4,5,6,7-tetrahydrothieno[2,3-c]pyridine-3-carboxamide]	< 25 nM	< 25 nM	< 25 nM	< 25 nM
CC(=O)Nc1ccc(CN2CCc3c(C(=O)Nc4cc(F)cc(C(F)(F)F)c4)csc3C2)cn1 [Example 42, 6-((6-acetamidopyridin-3-yl)methyl)-N-(3-fluoro-5-(trifluoromethyl)phenyl)-4,5,6,7-tetrahydrothieno[2,3-c]pyridine-3-carboxamide]	< 25 nM	< 25 nM	< 25 nM	< 25 nM
CN(C)CC(=O)Nc1cncc(CN2CCc3c(C(=O)Nc4cccc(C(F)(F)F)c4)csc3C2)c1 [Example 31, 6-((5-(2-(dimethylamino)acetamido)pyridin-3-yl)methyl)-N-(3-(trifluoromethyl)phenyl)-4,5,6,7-tetrahydrothieno[2,3-c]pyridine-3-carboxamide]	< 25 nM	25 to 50 nM	< 25 nM	25 to 50 nM
